Test results reported in patent US20050255493A1, “Molecular targeting of the IGF-1 receptor” (priority 2002, published 2005).
“Also recorded” adds a separate entry of the source.

How the values were obtained:
B16 melanoma cells = test: Growth in vivo of B16 melanoma cells transfected with RNA duplexes; details: B16 cells transfected with 200 nM duplex on three consecutive days, flanks of C57BL mice
Protocol: FIG. 8 illustrates growth in vivo in C57BL mice of B16 melanoma cells transfected with RNA duplexes. B16 melanoma cells were transfected with 200 nM duplexes (RNA22 is R2, Inv22 is Inv2) or oligofectamine alone (OF) for three consecutive days. On the 4th day cells were injected into the flanks of C57BL mice, using 2.5×10^5 cells/mouse, using groups of 5 mice. Tumours were measured in 2 dimensions every 2-3 days. Tumour volumes were calculated as n(a×b^2)/6 where a is the larger and b the smaller dimension.
B16 cells were transfected with 200 nM RNA duplexes (RNA22=R2, 22Inv=Inv2) or oligofectamine alone (OF) for three consecutive days. On the 4th day cells were injected into the flanks of C57BL mice, using 2.5×10^5 cells/mouse, using groups of 5 mice. Tumours were measured in 2 dimensions every 2-3 days. Tumour volumes were calculated as n(a×b^2)/6 where a is the larger and b the smaller dimension.

IGF1R [1] = test: IGF1R level by immunoblotting in transfected MDA-231 cells; format: cell-based, human
Protocol: (§1) The human and murine cell lines used in this study were cultured in RPMI 1640 plus 10% FCS at 37° C. in a humidified atmosphere of 5% CO2. The cultures were negative when tested for Mycoplasma infection. Cultures were passaged the day before transfection to achieve 30-50% confluence the following day. Initial transfections of ASOs used 1-2.5 μg/ml Cytofectin (Glen Research, Sterling, Va.), according to the manufacturer's instructions. Latterly Oligofectamine (Life Sciences) has been used for all ASO and RNAi transfections. The method was as described (see manufacturer's instructions and www.dharmacon.com) with minor modifications. For transfection of monolayers seeded in 6 well plates, 5 μl phosphorothioate oligonucleotide or RNA duplex at 100× final concentration were mixed with 2501 serum-free Optimem (Gibco-BRL). In a separate tube 2 μl Oligofectamine was mixed with 68 μl Optimem. After 10 min incubation at room temperature the contents of the two tubes were mixed and incubated for a further 25 min at room temperature. Monolayers were washed with 1-2 ml Optimem. To the cells were added 175 μl Optimem followed by the 325 μl complexes. Volumes were scaled up by factors of 2.22 or 6.05 for transfection in 60 mm or 100 mm dishes respectively. Cultures were incubated at 37° C. for 4 hr, and then 50 μl FCS and 3.5 ml RPMI plus 5% FCS were added to each well. After 48 hr incubation effects on IGF1R and IR expression were determined by immunoblotting. Some transfected cultures were serum-starved overnight, divided into two aliquots and treated with 10 nM Long R3-IGF-I (GroPep, Adelaide) or diluent for 30 min at 37° C. prior to lysis.
(§2) IGF1R expression was assessed by immunoblotting as previously described (Macaulay et al 2001). After washing in ice-cold PBS, cells were lysed in 50 mM Hepes pH 7.5, 100 mM NaCl, 10 mM EDTA, 1% Triton-X-100, 4 mM sodium pyrophosphate, 2 mM sodium orthovanadate, 10 mM sodium fluoride, 1 mM PMSF, 2 μg/ml each leupeptin and aprotinin. Lysates were centrifuged for 15 minutes at 14,000 g, the protein concentration of supernatants was measured using BCA assay reagent (Pierce), and equivalent amounts of protein were separated on 7.5% SDS-PAGE gels and transferred to nitrocellulose. Target protein levels were assessed using antibodies to the β-subunit of the IGF1R or IR (Santa Cruz), phospho-Ser 473 Akt or total Akt (Cell Signalling, New England Biolabs) or β-tubulin (Sigma). Activated IGF1R was detected by immunoprecipitation for phosphotyrosine (P-Tyr-100, Cell Signaling Technology). Primary antibodies were detected with HRP-conjugated secondary antibodies (Dako), and ECL Plus (Amersham Pharmacia).
The ASOs and RNAi duplexes were transfected into MDA-231 cells (human ER negative breast cancer) using Cytofectin or Oligofectamine, as described above. After 48 hr the cells were lysed, and IGF1R and IR levels were measured by immunoblotting. The intensity of the autoradiographic bands was quantified by densitometry, and IGF1R (or IR) levels were corrected for loading differences. The specific IGF1R or IR results are presented as % IGF1R (or IR) level of that in cells transfected with the same concentration of an appropriate control. This was a scrambled control oligonucleotide for ASOs, and an inverted RNA duplex for RNAi.

IGF1R [2] = test: IGF1R levels by immunoblotting in B16 murine melanoma cells transfected with RNAi duplexes; format: cell-based; details: 10 nM duplex, 48 hr
Protocol: The human and murine cell lines used in this study were cultured in RPMI 1640 plus 10% FCS at 37° C. in a humidified atmosphere of 5% CO2. The cultures were negative when tested for Mycoplasma infection. Cultures were passaged the day before transfection to achieve 30-50% confluence the following day. Initial transfections of ASOs used 1-2.5 μg/ml Cytofectin (Glen Research, Sterling, Va.), according to the manufacturer's instructions. Latterly Oligofectamine (Life Sciences) has been used for all ASO and RNAi transfections. The method was as described (see manufacturer's instructions and www.dharmacon.com) with minor modifications. […] After 48 hr incubation effects on IGF1R and IR expression were determined by immunoblotting. […]
IGF1R expression was assessed by immunoblotting as previously described (Macaulay et al 2001). […] Lysates were centrifuged for 15 minutes at 14,000 g, the protein concentration of supernatants was measured using BCA assay reagent (Pierce), and equivalent amounts of protein were separated on 7.5% SDS-PAGE gels and transferred to nitrocellulose. Target protein levels were assessed using antibodies to the β-subunit of the IGF1R or IR (Santa Cruz), phospho-Ser 473 Akt or total Akt (Cell Signalling, New England Biolabs) or β-tubulin (Sigma). Activated IGF1R was detected by immunoprecipitation for phosphotyrosine (P-Tyr-100, Cell Signaling Technology). […]

IGF1R [3] = test: IGF1R levels by immunoblotting in human tumour cell lines transfected with RNAi duplexes; format: cell-based; details: for IGF1R level as % of levels in cells transfected with inverted control duplex: 10 nM duplex, 48 hr
Protocol: as §1
as §2, with “Pharmacia). […]” for “Pharmacia).”
Tumour cells were transfected with 10 nM duplexes and IGF1R levels were measured after 48 hr. After correction for loading differences IGF1R levels in cells transfected with RNAi were expressed as % of levels in cells transfected with equivalent inverted control duplex.

IGF-I signaling to Akt = test: IGF signalling: phosphorylation of IGF1R β-subunit and Akt after IGF-I in transfected MDA-MB-231 cells; format: cell-based, human; details: MDA-MB-231, 100 nM duplexes, 50 nM IGF-1 for 30 min
Protocol: as §2
MDA-MB-231 cells transfected with 100 nM RNA duplexes were serum-starved overnight and treated with 50 nM IGF-1 or diluent for 30 min. The cells were lysed and lysates were analysed by immunoblotting for IGF1R, phospho-Ser473-Akt and total Akt, and by phosphotyrosine immunoprecipitation and IGF1R immunoblotting to detect phosphorylated IGF1R β-subunit (see FIG. 7).

[4] = system: UC101 human ovarian cancer cells; test: Tumorigenicity of UC101 ovarian cancer cells transfected with siRNA (xenografts); format: in vivo, female athymic (nu/nu mice); details: UC101 cells transfected with 200 nM siRNA, nu/nu mice
Protocol: UC101 ovarian cancer cells were transfected with 200 nM siRNA, mixed with irradiated NIH-3T3 cells and inoculated into the flanks of female athymic (nu/nu mice).
Tumorigenicity testing was conducted using UC101 human ovarian cancer cells transfected with 200 nM siRNA. After 48 hr the cells were inoculated into the flanks of female athymic (nu/nu mice), using 5×10^6 tumour cells mixed with 5×10^6 irradiated NIH-3T3 cells per mouse. Tumours were measured and volumes calculated as described (Macaulay et al., Oncogene 20: 2029-40, 2001). All procedures were performed in accordance with the Home Office Scientific Procedures Act 1986, and with the approval of the Animal Ethics Committee of Cancer Research UK.

[5] = system: Human EJ28 invasive bladder carcinoma cells; test: Survival and mitomycin-C sensitivity of EJ28 invasive bladder carcinoma cells; format: cell-based; details: human bladder cancer cells
Protocol: FIG. 20 illustrates that IGF1R gene silencing inhibits survival and enhances chemosensitivity of invasive bladder cancer. Human EJ28 invasive bladder carcinoma cells were transfected with 200 nM TSS or control duplex. After 48 hr the cells were disaggregated and re-seeded. To measure survival, 2000 cells were seeded in 10 cm dishes. Survival in TSS-transfected cells was only 0.2% of that in control-treated cultures, p<0.001). For chemosensitivity testing, cells were re-seeded into 96-well plates. The following day cultures were treated with mitomycin-C at the indicated concentrations for 24 hours, after which the medium was changed. After a further 4 days, growth was measured by calorimetric assay (MTS assay).

DU145 and PC3 cells = test: Radio- and chemosensitivity of prostate cancer cells after IGF1R gene silencing (clonogenic, change in IC50); format: cell-based, human; details: 200 nM duplex (FIG. 19)
Protocol: FIG. 19 illustrates that IGF1R gene silencing enhances chemosensitivity of androgen-resistant prostate cancer. PC3 cells were transfected with 200 nM TSS (red line) or scrambled sequence control duplex (green). After 48 hr the cells were disaggregated and re-seeded in 10 cm dishes (4000 cells/dish). The following day the cultures were treated with mitoxantrone at the indicated concentrations for 24 hours, after which the medium was changed and cells were allowed to survive to form colonies (>50 cells). Dotted lines mark IC501 dose required to inhibit survival to 50% untreated level.
Furthermore, IGF1R gene silencing appeared to enhance prostate cancer radio- and chemo-sensitivity (FIG. 19). The alteration in sensitivity was calculated as change in IC50, the concentration of drug/irradiation required to reduce the colony count to 50% of that in untreated cultures, as follows: [formula]

IGF1R [6] = test: IGF1R Western blot in prostate cancer cells transfected with siRNA TSS; format: cell-based, human; details: for IGF1R level, % of levels in cells treated with control duplex: 48 hours after transfection
Protocol: Prostate cancer cells were transfected with 200 nM siRNA TSS homologous to nt 166-186 of the IGF1R gene or inverted sequence control.
as §1, §2

[7] = system: Human prostate cancer cells; test: Clonogenic survival of human prostate cancer cells transfected with siRNA TSS; format: cell-based; details: all three prostate cancer cell lines (DU145, PC3, LNCaP), 200 nM
Protocol: FIG. 18 illustrates how IGF1R gene silencing inhibits survival of prostate cancer cells. Human prostate cancer cells were transfected with 200 nM TSS or control duplex. After 48 hr the cells were disaggregated and re-seeded in 10 cm dishes (2000 cells/dish). After 1-3 weeks incubation (depending on the cell line), visible colonies were stained and counted. Bars show mean±sem of triplicate dishes. **p<0.01, ***p<0.001 for comparison of survival in cultures treated with TSS versus control duplex.

Substance	Tumour growth in vivo compared with inverted control RNA duplex (B16 melanoma cells)	Inhibition of IGF1R expression on immunoblot (IGF1R [1]; MDA-231 breast cancer cells, 10-200 nM)	IGF1R level as % of levels in cells transfected with inverted control duplex (IGF1R [2]) [%]	IGF1R level as % of levels in cells transfected with inverted control duplex (IGF1R [3]; A549 human non-small cell lung) [%]	IGF1R level as % of levels in cells transfected with inverted control duplex (IGF1R [3]; DU145 human prostate cancer) [%]	IGF1R level as % of levels in cells transfected with inverted control duplex (IGF1R [3]; ME human melanoma) [%]	Inhibition of IGF1R expression on immunoblot (IGF1R [3]; ME melanoma cells, 10-200 nM)	IGF-I signaling to Akt / IGF-1-induced phosphorylation (IGF-I signaling to Akt)	Tumour development [4]	IGF1R downregulation compared between 21mer duplexes (IGF1R [1]; MDA-231 cells, 0.5, 5 and 50 nm (FIG. 5))	IGF1R downregulation (IGF1R [3]; 10 nM, human ME melanoma and A549 NSCLC)	Clonogenic survival [5]	Sensitivity to mitomycin-C ([5]; MTS assay)	Change in mitoxantrone IC50 (DU145 and PC3 cells) [fold]	IGF1R level, % of levels in cells treated with control duplex (IGF1R [6]; DU145, 200 nM) [%]	IGF1R level, % of levels in cells treated with control duplex (IGF1R [6]; LNCaP, 200 nM) [%]	IGF1R level, % of levels in cells treated with control duplex (IGF1R [6]; PC3, 200 nM) [%]	Inhibition of IGF1R expression (IGF1R [6]; all three prostate cancer cell lines (DU145, PC3, LNCaP))	Inhibition of clonogenic survival [7]	IGF1R gene silencing (IGF1R [1]; MDA-MB-231 human breast carcinoma cells)
R2: RNAi duplex GCCGAUGUGUGAGAAGACCTT / TTCGGCUACACACUCUUCUGG, SEQ ID NO:23 (sense GCCGAUGUGUGAGAAGACCNN; chemistry not fully specified; one strand is listed 3' to 5')	reduced growth rate in vivo	almost complete inhibition of IGF1R expression	45 ± 4	22 ± 2	34 ± 13	53 ± 3	almost complete inhibition of IGF1R expression	could not detect IGF-1-induced phosphorylation of the IGF1R β-subunit or of Akt	–	–	–	–	–	–	–	–	–	–	–	–
R6: RNAi duplex CUACAUUGUGGGGAAUAAGTT / TTGAUGUAACACCCCUUAUUC, SEQ ID NO:34 (CUACAUUGUGGGGAAUAAGNN; second strand not cited, chemistry not fully specified)	–	–	72 ± 14	102 ± 16	74 ± 8	104 ± 5	–	not sufficient to abolish IGF-I signaling to Akt	rapidly growing tumours	significantly less potent; also recorded: less than the effect of the mutant duplex Mut2	essentially inactive	–	–	–	–	–	–	–	–	–
siRNA TSS: 21mer duplex homologous to nucleotides 166-186 of the IGF1R transcript, CGACUAUCAGCAGCUGAAGTT / TTGCUGAUAGUCGUCGACUUC, SEQ ID NO:37 (CGACUAUCAGCAGCUGAAGNN; second strand not cited, chemistry not fully specified)	–	–	–	–	–	–	–	–	–	–	–	profound inhibition of clonogenic survival	enhancement of sensitivity to mitomycin-C	−2	18	17	22	significant inhibition	significant inhibition	induce IGF1R gene silencing
